Assay results published in ChEMBL document CHEMBL1129469, “Nonpeptide angiotensin II receptor antagonists: the next generation in antihypertensive therapy” (J Med Chem, 1996).
Where a chain is given by its changes, count along the chain named. Blank lines part the entries; values can stand above or below the compound they belong to.

Key:
[1] = target: T1, Angiotensin II receptor (AT-1) type-1 (Rattus norvegicus, UniProt P29089+P25095); assay: Inhibitory activity against Angiotensin II receptor, type 1; type: protein assay
T1 sequence (P29089 whole entry): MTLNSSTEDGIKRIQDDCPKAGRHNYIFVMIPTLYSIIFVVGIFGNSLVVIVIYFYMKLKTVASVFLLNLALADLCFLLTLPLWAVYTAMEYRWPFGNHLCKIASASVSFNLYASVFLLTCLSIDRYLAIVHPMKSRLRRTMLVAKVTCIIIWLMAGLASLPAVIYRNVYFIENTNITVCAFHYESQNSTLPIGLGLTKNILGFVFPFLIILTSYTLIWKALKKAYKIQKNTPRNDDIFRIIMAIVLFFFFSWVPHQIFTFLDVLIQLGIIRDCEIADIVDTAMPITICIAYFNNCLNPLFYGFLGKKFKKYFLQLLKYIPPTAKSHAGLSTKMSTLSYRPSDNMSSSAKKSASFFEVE
T1 sequence (P25095 whole entry): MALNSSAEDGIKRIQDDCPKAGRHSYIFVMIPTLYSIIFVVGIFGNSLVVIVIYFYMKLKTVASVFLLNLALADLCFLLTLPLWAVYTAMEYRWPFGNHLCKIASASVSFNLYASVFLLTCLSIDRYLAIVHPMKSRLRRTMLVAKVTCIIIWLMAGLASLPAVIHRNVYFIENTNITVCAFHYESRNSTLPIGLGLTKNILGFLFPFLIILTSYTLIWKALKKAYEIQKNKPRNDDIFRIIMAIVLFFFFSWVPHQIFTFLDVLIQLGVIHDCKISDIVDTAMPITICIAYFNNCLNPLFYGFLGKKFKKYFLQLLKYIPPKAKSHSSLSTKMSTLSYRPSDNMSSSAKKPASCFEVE

[2] = target: T2, Type-1 angiotensin II receptor (Homo sapiens, UniProt P30556); assay: (§1) Inhibition of Angiotensin II receptor, type 1
T2 sequence (P30556 whole entry): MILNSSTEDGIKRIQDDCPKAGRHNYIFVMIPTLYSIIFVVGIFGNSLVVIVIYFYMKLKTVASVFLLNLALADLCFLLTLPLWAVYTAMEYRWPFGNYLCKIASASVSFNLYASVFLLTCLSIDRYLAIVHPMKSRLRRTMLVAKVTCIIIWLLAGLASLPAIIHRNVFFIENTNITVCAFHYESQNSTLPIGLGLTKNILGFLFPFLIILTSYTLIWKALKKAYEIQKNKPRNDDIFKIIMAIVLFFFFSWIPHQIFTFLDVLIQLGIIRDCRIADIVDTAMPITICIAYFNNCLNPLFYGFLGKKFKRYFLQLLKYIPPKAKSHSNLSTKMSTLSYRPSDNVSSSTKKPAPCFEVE

[3] = target: T3, Type-2 angiotensin II receptor (Homo sapiens, UniProt P50052); assay: Inhibition of Angiotensin II receptor, type 2
T3 sequence (P50052 whole entry): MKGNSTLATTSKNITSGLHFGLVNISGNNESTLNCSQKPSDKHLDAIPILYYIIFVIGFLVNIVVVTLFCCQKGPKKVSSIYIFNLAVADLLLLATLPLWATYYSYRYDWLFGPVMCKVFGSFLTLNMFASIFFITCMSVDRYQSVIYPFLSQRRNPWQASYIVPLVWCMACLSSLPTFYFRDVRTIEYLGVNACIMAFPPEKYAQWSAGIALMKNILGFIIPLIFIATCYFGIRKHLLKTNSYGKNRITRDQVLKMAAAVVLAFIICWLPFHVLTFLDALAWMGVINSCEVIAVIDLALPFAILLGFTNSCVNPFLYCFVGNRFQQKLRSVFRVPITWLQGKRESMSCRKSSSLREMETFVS

[4] = target: T1, Angiotensin II receptor (AT-1) type-1; assay: In vitro antagonistic potency against Angiotensin II receptor, type 1 in rat liver using [125I]-Sar1-Ile8-Ang II as radioligand; type: functional, tissue-based
Oryctolagus cuniculus = species: Oryctolagus cuniculus; assay: Compound was tested for its antagonistic activity against angiotensin II-induced contractions in rabbit aorta; type: functional
[5] = target: T1, Angiotensin II receptor (AT-1) type-1; assay: In vitro antagonistic potency against Angiotensin II receptor, type 1 in rat adrenal cortex; type: functional, tissue-based
[6] = target: T1, Angiotensin II receptor (AT-1) type-1; assay: Inhibitory activity against Angiotensin II receptor, type 1 in rat aortic membranes; type: cell membranes
Rattus norvegicus [7] = species: Rattus norvegicus; assay: Oral effective dose required for lowering blood pressure in renal hypertensive rats (RHR); type: functional
Rattus norvegicus [8] = assay: Intravenous effective dose required for lowering blood pressure in renal hypertensive rats (RHR); type: functional
[9] = target: T4, Type-1 angiotensin II receptor (Oryctolagus cuniculus, UniProt P34976); assay: as §1
T4 sequence (P34976 whole entry): T2 sequence (P30556 whole entry) with I2M, V49A, I254V, I270V, R272H, R311K, T349S, A353V

[10] = target: T5, Type-2 angiotensin II receptor (Rattus norvegicus, UniProt P35351); assay: Inhibitory activity at Angiotensin II type 2 receptor.
T5 sequence (P35351 whole entry): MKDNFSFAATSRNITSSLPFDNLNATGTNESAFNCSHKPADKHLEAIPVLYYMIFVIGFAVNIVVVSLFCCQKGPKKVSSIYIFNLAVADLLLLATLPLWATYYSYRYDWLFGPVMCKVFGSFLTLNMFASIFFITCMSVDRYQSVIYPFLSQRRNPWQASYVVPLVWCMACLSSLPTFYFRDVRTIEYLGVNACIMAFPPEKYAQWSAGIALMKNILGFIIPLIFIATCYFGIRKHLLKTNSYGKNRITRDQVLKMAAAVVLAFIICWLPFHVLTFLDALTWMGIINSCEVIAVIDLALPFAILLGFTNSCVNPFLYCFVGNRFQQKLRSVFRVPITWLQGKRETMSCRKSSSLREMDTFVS

[11] = target: T1, Angiotensin II receptor (AT-1) type-1; assay: Inhibitory activity against Angiotensin II receptor type 1 in rat adrenal membrane; type: cell membranes
[12] = Oral bioavailability in rat; type: ADME, organism-based; conditions: in vivo
[13] = target: T1, Angiotensin II receptor (AT-1) type-1; assay: In vitro antagonistic potency against Angiotensin II receptor, type 1 in rat liver; type: functional, tissue-based
[14] = Oral bioavailability in dog; type: ADME, organism-based, Canis lupus familiaris; conditions: in vivo

IC50 [1]: > 100000 nM
SMILES: Cc1cc(Cn2cnc3c2C[C@@H](C(=O)O)N(C(=O)C(c2ccccc2)c2ccccc2)C3)ccc1N(C)C.O=C(O)C(F)(F)F.O=C(O)C(F)(F)F

IC50 [2]: 0.2 nM | IC50 [3]: 0.12 nM
SMILES: CCCCC(=O)Nc1ccc(Br)c(-n2nc(CC)n(Cc3ccc(-c4ccccc4S(=O)(=O)NC(=O)OC(C)(C)C)cc3F)c2=O)c1

Log Ki [4]: -9.3
SMILES: CCc1nc(C2CC2)c(C(N)=O)n1Cc1ccc2oc(-c3ccccc3NS(=O)(=O)C(F)(F)F)c(Br)c2c1
pKB (Oryctolagus cuniculus): 9

Ki [5]: 4400 nM
SMILES: CCCCCCC(C(=O)O)n1cnc(NC(=O)c2cccc(O)c2C(=O)O)c1 (configuration not stated)
Kb (Oryctolagus cuniculus): 78 nM

IC50 [6]: 52 nM
SMILES: Cc1ccnc2c1nc(C1CC1)n2Cc1ccc(-c2ccccc2C(=O)O)cc1

IC50 [2]: 1 nM | IC50 [3]: 1 nM
SMILES: CCCc1nc(CC)c(C(=O)OC)n1Cc1ccc(-c2ccccc2S(=O)(=O)NC(=O)OCCC(C)C)cc1F
ED50 (Rattus norvegicus [7]): 0.67 mg/kg | ED50 (Rattus norvegicus [8]): 0.48 mg/kg

IC50 [2]: 570 nM | IC50 [3]: 0.69 nM
SMILES: CCCc1nc(CC)c(C(=O)OCc2ccccc2C(=O)c2ccccc2)n1Cc1ccc(-c2ccccc2S(=O)(=O)NC(=O)OCCC(C)C)cc1F
ED30 (Rattus norvegicus [7]): 0.9 mg/kg | ED30 (Rattus norvegicus [8]): 0.05 mg/kg

IC50 [9]: 0.3 nM | IC50 [10]: 2 nM
SMILES: CCCc1ccc(-c2nnn[nH]2)c(-c2ccc(Cn3c(CC)nc4c(C)cc(C)nc43)cc2)c1

IC50 ([1]; read-out: IC50): 6 nM
SMILES: CCCCc1nc2ccc(C(C)(C)OC)cc2c(=O)n1Cc1ccc(-c2ccccc2-c2nn[nH]n2)cc1 [CL-329167]

IC50 [11]: 3.1 nM
SMILES: CCCc1nc(C(F)(F)C(F)(F)F)c(C(=O)O)n1Cc1ccc(-c2ccccc2-c2nn[nH]n2)cc1
ED30 (Rattus norvegicus [7]): 0.21 mg/kg | ED30 (Rattus norvegicus [8]): 0.02 mg/kg

SMILES: Cc1nc(C)c2c(n1)N(Cc1ccc(-c3ccccc3-c3nnn[nH]3)cc1)C(=O)CC2 [TASOSARTAN]
ED60 (Rattus norvegicus [7]): 0.58 mg/kg

IC50 [10]: 450 nM
SMILES: CCCCc1nn(-c2ccccc2C(F)(F)F)c(=O)n1Cc1ccc(-c2ccccc2S(=O)(=O)NC(=O)c2ccccc2)cc1 [L-159913]

bioavailability [12]: 3% | Log Ki [4]: -9
SMILES: CCCCc1nc(Cl)c(C(=O)O)n1Cc1ccc2oc(-c3ccccc3-c3nnn[nH]3)c(Br)c2c1 [ZOLASARTAN]
pKB (Oryctolagus cuniculus): 9.8

F [12]: 11% | Ki [13]: 2.9 nM
SMILES: O=C(O)c1c(Oc2ccc(-c3ccccc3-c3nn[nH]n3)cc2)c(C2CC2)nc2ccccc12
Kb (Oryctolagus cuniculus): 0.061 nM

IC50 [10]: 300 nM
SMILES: CCCCc1nc2ccn(CC(=O)N(c3ccccc3)c3ccccc3)c(=O)c2n1Cc1ccc(-c2ccccc2-c2nnn[nH]2)cc1

bioavailability [12]: 8% | bioavailability [14]: 13% | IC50 [11]: 6 nM
SMILES: CCCc1nc(CC)c(C(=O)O)n1Cc1ccc(-c2ccccc2-c2nn[nH]n2)cc1
ED30 (Rattus norvegicus [7]): 0.03 mg/kg | ED30 (Rattus norvegicus [8]): 0.005 mg/kg

IC50 [2]: 1.5 nM | IC50 [3]: 6.1 nM
SMILES: CCCCOC(=O)NS(=O)(=O)c1ccc(CCC)cc1-c1ccc(Cn2c(CC)nc3c(C)cc(C)nc32)cc1

IC50 [2]: > 100000 nM
SMILES: Cc1cc(Cn2cnc3c2C[C@@H](C(=O)O)N(C(=O)C(c2ccccc2)c2ccccc2)C3)ccc1N

bioavailability [12]: 23% | bioavailability [14]: 17%
SMILES: CCc1nc2ccc(NC(=O)N(C)C(C)C)cc2c(=O)n1Cc1ccc(-c2ccccc2S(=O)(=O)NC(=O)OCCC2CC2)cc1F

IC50 [6]: 0.6 nM
SMILES: CCCCc1nc2cccnc2n1Cc1ccc(-c2ccccc2-c2nnn[nH]2)cc1
